Key:
[1] = system: PL45 cells; assay: MTT bioactivity assay (cell viability); format: cell-based, human; details: 72 hours incubation
Method: A 3-(4,5-Dimethylthiazol-2-yl)-2,5-Diphenyltetrazolium Bromide (MTT) (Thermo Fisher Scientifc, NY, USA) assay was used to test the bioactivity of NOTA-Dimer-San A cyclodecapeptide. PL45 cells (5000 cells) were seeded in a 96-well plate and incubated overnight. […]. Each concentration was performed in triplicate, and the drug was incubated with the cells for 72 hours. Then 10 μL of MTT (5 mg/mL) was added into each well, incubated for 4 hours until a purple precipitate was visible, and then 100 μL of a detergent reagent was added and incubated until the crystal was dissolved. Finally, the optical density (proportional to the number of live cells) was assessed with a Synergy H1 Hybrid Reader (BioTek® Instruments Inc., Winooski, Vermont, USA) at 570 nm. The cell viability (%) was calculated with GraphPad Prism 5.0 software (GraphPad Software Inc., San Diego, CA, USA).

[2] = system: pancreatic cancer PL45 cells; design: method as in PMID 20014866, PMID 29202402; details: read-out: IC50 (inhibition of pancreatic cancer PL45 cells); cited from earlier work
[3] = target: T1, Hsp90 in PL45 cells (Homo sapiens, UniProt P07900); assay: Confocal cell immunofluorescence; format: cell-based; details: biotin-peptide detected with Cy5 labeled avidin, anti-Hsp90α antibody co-stain
T1 construct: endogenous in cells; host or cells: PL45 cells
Method: PL45 cells (3-5 × 10^5) were seeded in a confocal plate with 500 µL of culture medium and incubated for 24 hours at 37°C with 5% CO2. The cell culture medium was then removed, and the cells were rinsed 3 times using phosphate buffered saline (PBS). The cells were fixed using 400 µL of 4% paraformaldehyde (pH 7.4) for 20 minutes at room temperature (RT, ~20°C). Then 500 µL of 3% Bovine Serum Albumin (BSA) (Sigma-Aldrich Corp., St. Louis, MO, USA) was added and incubated for 30 minutes at RT for blocking. The cells were washed and then 250 µL of diluted anti-hsp90α antibody (1:250) or biotine-Dimer-San A peptide was added and incubated for 24 hours at 4°C. The cells were washed, and the desired concentration of the fluorescent-dye-labeled secondary antibody (Abcam, Cambridge, UK) or Cy5 labeled avidin (Vector Laboratories, Burlingame, CA, USA) was added and protected from light at RT for 60 minutes. The supernatant was discarded, and the cells were washed, then a drop of antifade mounting medium with DAPI (Vector Laboratories, Burlingame, CA, USA) was added and incubated for 45 minutes. The target antigen was visualized by confocal fluorescence microscopy Zeiss LSM 880 Airyscan (Carl Zeiss AG, Oberkochen, Germany).

Molecule	IC50 [1]	IC50 [2]	binding / co-localization with Hsp90 (confocal immunofluorescence) [3]
C=CCNC1=C2C[C@@H](C)C[C@H](OC)[C@H](O)[C@@H](C)/C=C(\C)[C@H](OC(N)=O)[C@@H](OC)/C=C\C=C(/C)C(=O)NC(=CC1=O)C2=O [17AAG, 17-allylaminogeldanamycin]	127 nM	–	–
Dimer-Sansalvamide A cyclodecapeptide [Dimer-San A]	–	1 to 20 nM	bound to the Hsp90 target

— article PMC8990417, “^18F-labeled Dimer-Sansalvamide A Cyclodecapeptide: A Novel Diagnostic Probe to Discriminate Pancreatic Cancer from Inflammation in a Nude Mice Model” (Journal of Cancer, 2022)
